From EP4786487A1, “PEPTIDE” (Peptidream Inc, priority 2023, dated 2025)
Read-outs that look alike come from different tables or passages of the source. Starred links: 1 amine or outer side, 2 acyl side, 3 side chain; linkers in the order of their positions; H or OH if unused. Positions of bridges follow the written chain, without caps; N, C: chain ends. Non-standard residues stand in square brackets, D forms with d. Residues, ends and D or L forms follow the SMILES beside them. Phe(3-OCH2COOH) = N[C@@H](Cc1cccc(OCC(=O)O)c1)C(=O)O; Phe(4-COOH) = N[C@@H](Cc1ccc(C(=O)O)cc1)C(=O)O; Gly(N(CH2)3COOH) = O=C(O)CCCNCC(=O)O; X1 = CCCCCCC[C@H](N[*:1])C(=O)[*:2]; NMeF = CN[C@@H](Cc1ccccc1)C(=O)O; d(hCys) = N[C@H](CCS)C(=O)O; NMeC = CN[C@@H](CS)C(=O)O; hCys = N[C@@H](CCS)C(=O)O; NMeA = CN[C@@H](C)C(=O)O; Sar = CNCC(=O)O

Assays:
Myostatin = target: T1, Myostatin (Homo sapiens, UniProt O14793); experiment: HepG2 reporter gene assay, Evaluation Procedure (2): 2-concentrations assay, myostatin inhibition; format: cell-based; conditions: HepG2
T1 construct: active myostatin (also called mature myostatin) is a homodimer consisting of two C-terminal growth factor domains; purchased R&D systems 788-G8/CF
T1 sequence (O14793 267-375): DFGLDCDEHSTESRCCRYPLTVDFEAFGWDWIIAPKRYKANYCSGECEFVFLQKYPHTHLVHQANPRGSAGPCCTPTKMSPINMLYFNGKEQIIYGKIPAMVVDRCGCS
Procedure, shortened: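 Myostatin inhibition was measured in a luciferase reporter assay using HepG2 cells transfected with a pGL3 vector containing 12 CAGA repeats upstream of luciferase. After 20 to 24 hours with 10 ng/mL myostatin, cells received One-Glo:PBS (1:1) at 100 µL/well, were shaken for 5 min, and 20 µL/well was moved to 384-well plates and read on an Envision 2104.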

GDF-11 = target: T2, GDF-11 (Homo sapiens, UniProt O95390); experiment: HepG2 reporter gene assay, Evaluation Procedure (2): 2-concentrations assay, GDF-11 inhibition; format: cell-based; conditions: for inhibition: read-out: inhibition rate (GDF-11 inhibition assay)
T2 construct: purchased R&D systems 1958-GD-G8/CF
T2 sequence (O95390 299-407): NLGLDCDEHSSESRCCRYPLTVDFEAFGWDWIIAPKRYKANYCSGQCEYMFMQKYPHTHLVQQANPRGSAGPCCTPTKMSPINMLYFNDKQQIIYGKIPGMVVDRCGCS
Procedure, shortened: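 HepG2 cells carrying the transfected pGL3(CAGA)12-luc reporter, a pGL3 vector with luciferase placed downstream of 12 CAGA repeats, were stimulated with GDF-11 at a final 10 ng/mL together with test peptide. Blank wells received no GDF-11 and no peptide. Plates were incubated 20 to 24 hours at 37°C with 5% CO2. Luminescence from One-Glo substrate was read to calculate percent inhibition.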

[1] = Table 7-3/7-4, myostatin 10 ng/mL, peptide at the higher of the 2 concentrations, read-out: inhibition rate (myostatin inhibition assay)
[2] = Table 7-3/7-4, myostatin 10 ng/mL, peptide at the lower of the 2 concentrations, read-out: inhibition rate (myostatin inhibition assay)
[3] = HepG2, first GDF-11 column of Table 7-3/7-4, GDF-11 10 ng/mL, peptide at the lower of the 2 concentrations
[4] = HepG2, second GDF-11 column of Table 7-3/7-4, GDF-11 10 ng/mL, peptide at the higher of the 2 concentrations

inhibition at 0.1 µM (Myostatin; [1])	inhibition at 0.03 µM (Myostatin; [2])	inhibition (GDF-11; [3])	inhibition (GDF-11; [4])	inhibition at 0.03 µM (Myostatin; peptide 30nM, Myostatin 10 ng/mL, read-out: Myostatin Inhibition 30nM)	inhibition at 0.1 µM (Myostatin; peptide 100nM, Myostatin 10 ng/mL, read-out: Myostatin Inhibition 100nM)	inhibition at 0.03 µM (GDF-11; HepG2, peptide 30nM, GDF-11 10 ng/mL, read-out: GDF11 Inhibition 30nM)	inhibition at 0.1 µM (GDF-11; HepG2, peptide 100nM, GDF-11 10 ng/mL, read-out: GDF11 Inhibition 100nM)	SMILES
100%	100%	0%	0%	–	–	–	–	CCCCCCC[C@@H]1NC(=O)[C@H](Cc2ccccc2)N(C)C(=O)[C@H](CCCNC(=N)N)NC(=O)[C@H](Cc2ccc(C(=O)O)cc2)NC(=O)[C@H](Cc2cccc(OCC(=O)O)c2)NC(=O)[C@H](C)N(C)C(=O)[C@H]([C@@H](C)CC)NC(=O)[C@H](Cc2ccccc2)N(C)C(=O)[C@H](Cc2ccc(O)cc2)NC(=O)[C@H](Cc2c[nH]c3ccccc23)NC(=O)[C@H](C)NC(=O)CN(CCCC(=O)O)C(=O)CSCC[C@H](C(=O)O)NC(=O)[C@H](Cc2ccccc2)N(C)C(=O)[C@H](C)N(C)C1=O [Myostatin_99_v441] ({CH2CO}-[Gly(N(CH2)3COOH)]AWY[NMeF]I[NMeA][Phe(3-OCH2COOH)][Phe(4-COOH)]R[NMeF][X1][NMeA][NMeF][d(hCys)]-OH; thioether N-15)
100%	100%	0%	0%	–	–	–	–	CCCCCCC[C@@H]1NC(=O)[C@H](Cc2ccccc2)N(C)C(=O)[C@H](CCCNC(=N)N)NC(=O)[C@H](Cc2ccc(C(=O)O)cc2)NC(=O)[C@H](Cc2cccc(OCC(=O)O)c2)NC(=O)[C@H](C)N(C)C(=O)[C@H]([C@@H](C)CC)NC(=O)[C@H](Cc2ccccc2)N(C)C(=O)[C@H](Cc2ccc(O)cc2)NC(=O)[C@H](Cc2c[nH]c3ccccc23)NC(=O)[C@H](C)NC(=O)CN(CCCC(=O)O)C(=O)CSCC[C@@H](C(=O)O)NC(=O)[C@H](Cc2ccccc2)N(C)C(=O)[C@H](C)N(C)C1=O [Myostatin_99_v442] ({CH2CO}-[Gly(N(CH2)3COOH)]AWY[NMeF]I[NMeA][Phe(3-OCH2COOH)][Phe(4-COOH)]R[NMeF][X1][NMeA][NMeF][hCys]-OH; thioether N-15)

Continued, compound first:

SMILES	inhibition at 0.1 µM (Myostatin; [1])	inhibition at 0.03 µM (Myostatin; [2])	inhibition (GDF-11; [3])	inhibition (GDF-11; [4])	inhibition at 0.03 µM (Myostatin; peptide 30nM, Myostatin 10 ng/mL, read-out: Myostatin Inhibition 30nM)	inhibition at 0.1 µM (Myostatin; peptide 100nM, Myostatin 10 ng/mL, read-out: Myostatin Inhibition 100nM)	inhibition at 0.03 µM (GDF-11; HepG2, peptide 30nM, GDF-11 10 ng/mL, read-out: GDF11 Inhibition 30nM)	inhibition at 0.1 µM (GDF-11; HepG2, peptide 100nM, GDF-11 10 ng/mL, read-out: GDF11 Inhibition 100nM)
CCCCCCC[C@@H]1NC(=O)[C@H](Cc2ccccc2)N(C)C(=O)[C@H](CCCNC(=N)N)NC(=O)[C@H](Cc2ccc(C(=O)O)cc2)NC(=O)[C@H](Cc2cccc(OCC(=O)O)c2)NC(=O)[C@H](C)N(C)C(=O)[C@H]([C@@H](C)CC)NC(=O)[C@H](Cc2ccccc2)N(C)C(=O)[C@H](Cc2ccc(O)cc2)NC(=O)[C@H](Cc2c[nH]c3ccccc23)NC(=O)[C@H](C)NC(=O)CN(CCCC(=O)O)C(=O)CSC[C@@H](C(N)=O)N(C)C(=O)[C@H](Cc2ccccc2)N(C)C(=O)[C@H](C)N(C)C1=O [Myostatin_99_v440] ({CH2CO}-[Gly(N(CH2)3COOH)]AWY[NMeF]I[NMeA][Phe(3-OCH2COOH)][Phe(4-COOH)]R[NMeF][X1][NMeA][NMeF][NMeC]-NH2; thioether N-15)	100%	99%	0%	9%	–	–	–	–
CCCCCCC[C@@H]1NC(=O)[C@H](Cc2ccccc2)N(C)C(=O)[C@H](CCCNC(=N)N)NC(=O)[C@H](Cc2ccc(C(=O)O)cc2)NC(=O)[C@H](Cc2cccc(OCC(=O)O)c2)NC(=O)[C@H](C)N(C)C(=O)[C@H]([C@@H](C)CC)NC(=O)[C@H](Cc2ccccc2)N(C)C(=O)[C@H](Cc2ccc(O)cc2)NC(=O)[C@H](Cc2c[nH]c3ccccc23)NC(=O)[C@H](C)NC(=O)CN(CCCC(=O)O)C(=O)[C@H](C)N(C)C(=O)[C@@H](C)NC(=O)[C@H](Cc2ccccc2)N(C)C(=O)[C@H](C)N(C)C1=O [Myostatin_99_v450] (cyclo(AWY[NMeF]I[NMeA][Phe(3-OCH2COOH)][Phe(4-COOH)]R[NMeF][X1][NMeA][NMeF][dA][NMeA][Gly(N(CH2)3COOH)]))	100%	100%	0%	0%	–	–	–	–
CCCCCCC[C@@H]1NC(=O)[C@H](Cc2ccccc2)N(C)C(=O)[C@H](CCCNC(=N)N)NC(=O)[C@H](Cc2ccc(C(=O)O)cc2)NC(=O)[C@H](Cc2cccc(OCC(=O)O)c2)NC(=O)[C@H](C)N(C)C(=O)[C@H]([C@@H](C)CC)NC(=O)[C@H](Cc2ccccc2)N(C)C(=O)[C@H](Cc2ccc(O)cc2)NC(=O)[C@H](Cc2c[nH]c3ccccc23)NC(=O)[C@H](C)NC(=O)[C@H](C)N(C)C(=O)[C@H](C)N(C)C(=O)CNC(=O)[C@H](Cc2ccccc2)N(C)C(=O)[C@H](C)N(C)C1=O [Myostatin_99_v455] (cyclo(AWY[NMeF]I[NMeA][Phe(3-OCH2COOH)][Phe(4-COOH)]R[NMeF][X1][NMeA][NMeF]G[NMeA][NMeA]))	100%	99%	1%	0%	–	–	–	–
CC[C@H](C)[C@@H]1NC(=O)[C@H](Cc2ccccc2)N(C)C(=O)[C@H](Cc2ccc(O)cc2)NC(=O)[C@H](Cc2c[nH]c3ccccc23)NC(=O)[C@H](CCCNC(=N)N)NC(=O)[C@H](C)NC(=O)CSC[C@@H](C(N)=O)NC(=O)[C@H](Cc2ccccc2)N(C)C(=O)[C@H](C)N(C)C(=O)[C@H](CC(C)C)NC(=O)[C@H](Cc2ccccc2)N(C)C(=O)[C@H](CCCNC(=N)N)NC(=O)[C@H](Cc2ccc(O)cc2)NC(=O)[C@H](Cc2ccc(O)cc2)NC(=O)CN(C)C1=O [Myostatin_Myostatin_000099] ({CH2CO}-ARWY[NMeF]I[Sar]YYR[NMeF]L[NMeA][NMeF]C-NH2; thioether N-15)	–	–	–	–	56%	87%	0%	19%
